According to ChEMBL document CHEMBL3885881, “DrugMatrix”:

Species: Rattus norvegicus
Experiment: DrugMatrix - Regimen: Daily Repeat
Type: toxicity, organism-based, Sprague-Dawley
Set-up: regimen Daily Repeat, gender Male, age 6-8 weeks
Conditions: in vivo, po, route oral GAVAGE, vehicle .5 % CMC; for BASOPHIL / EOSINOPHIL / ERYTHROCYTE COUNT / HEMATOCRIT / HEMOGLOBIN / LEUKOCYTE COUNT / LYMPHOCYTE / MEAN CORPUSCULAR HEMOGLOBIN / MEAN CORPUSCULAR HEMOGLOBIN CONCENTRATION / MEAN CORPUSCULAR VOLUME / MONOCYTE / NEUTROPHIL / PLATELET COUNT: tissue Blood; for ALANINE AMINOTRANSFERASE / ALBUMIN / ALKALINE PHOSPHATASE / ASPARTATE AMINOTRANSFERASE / BLOOD UREA NITROGEN / CHLORIDE / CHOLESTEROL / CREATINE PHOSPHOKINASE / CREATININE / GLUCOSE / PHOSPHORUS / POTASSIUM / SODIUM / TOTAL BILIRUBIN / TOTAL PROTEIN: tissue Plasma
[1] = 0 mg/kg, 72 h, dose level Control, time 3 day
[2] = 0 mg/kg, 120 h, dose level Control, time 5 day
[3] = 38 mg/kg, 72 h, dose level Low, time 3 day
[4] = 38 mg/kg, 120 h, dose level Low, time 5 day
[5] = 269 mg/kg, 72 h, dose level High, time 3 day
[6] = 269 mg/kg, 120 h, dose level High, time 5 day

CCCNC(=O)NS(=O)(=O)c1ccc(Cl)cc1 [CHLORPROPAMIDE]
BASOPHIL [1]: 0% | EOSINOPHIL [1]: 0.33% | ERYTHROCYTE COUNT [1]: 6.2 x10E6/uL | HEMATOCRIT [1]: 38.08% | HEMOGLOBIN [1]: 14.92 G/DL | LEUKOCYTE COUNT [1]: 11.13 x10E3/uL | LYMPHOCYTE [1]: 76% | MEAN CORPUSCULAR HEMOGLOBIN [1]: 24.1 pg | MEAN CORPUSCULAR HEMOGLOBIN CONCENTRATION [1]: 39.17 G/DL | MEAN CORPUSCULAR VOLUME [1]: 61.48 fL | MONOCYTE [1]: 3.83% | NEUTROPHIL [1]: 19.83% | PLATELET COUNT [1]: 1327.5 x10E3/uL | ALANINE AMINOTRANSFERASE [1]: 40.17 u/L | ALBUMIN [1]: 4.07 G/DL | ALKALINE PHOSPHATASE [1]: 372 u/L | ASPARTATE AMINOTRANSFERASE [1]: 67.17 u/L | BLOOD UREA NITROGEN [1]: 18.83 mg/dL | CHLORIDE [1]: 105.17 MEQ/L | CHOLESTEROL [1]: 78.17 mg/dL | CREATINE PHOSPHOKINASE [1]: 149.17 u/L | CREATININE [1]: 0.57 mg/dL | GLUCOSE [1]: 185.17 mg/dL | PHOSPHORUS [1]: 11.43 mg/dL | POTASSIUM [1]: 6.78 MEQ/L | SODIUM [1]: 152.83 MEQ/L | TOTAL BILIRUBIN [1]: 0.4 mg/dL | TOTAL PROTEIN [1]: 6.87 G/DL | BASOPHIL [2]: 0% | EOSINOPHIL [2]: 0% | ERYTHROCYTE COUNT [2]: 6.05 x10E6/uL | HEMATOCRIT [2]: 36.55% | HEMOGLOBIN [2]: 14.7 G/DL | LEUKOCYTE COUNT [2]: 11.8 x10E3/uL | LYMPHOCYTE [2]: 86.83% | MEAN CORPUSCULAR HEMOGLOBIN [2]: 24.37 pg | MEAN CORPUSCULAR HEMOGLOBIN CONCENTRATION [2]: 40.32 G/DL | MEAN CORPUSCULAR VOLUME [2]: 60.47 fL | MONOCYTE [2]: 0.83% | NEUTROPHIL [2]: 12.33% | PLATELET COUNT [2]: 1177 x10E3/uL | ALANINE AMINOTRANSFERASE [2]: 41.83 u/L | ALBUMIN [2]: 3.75 G/DL | ALKALINE PHOSPHATASE [2]: 377.5 u/L | ASPARTATE AMINOTRANSFERASE [2]: 60.83 u/L | BLOOD UREA NITROGEN [2]: 16 mg/dL | CHLORIDE [2]: 105.67 MEQ/L | CHOLESTEROL [2]: 67.83 mg/dL | CREATINE PHOSPHOKINASE [2]: 120.33 u/L | CREATININE [2]: 0.6 mg/dL | GLUCOSE [2]: 167.67 mg/dL | PHOSPHORUS [2]: 10.03 mg/dL | POTASSIUM [2]: 6.68 MEQ/L | SODIUM [2]: 150.5 MEQ/L | TOTAL BILIRUBIN [2]: 0.57 mg/dL | TOTAL PROTEIN [2]: 6.25 G/DL | BASOPHIL [3]: 0% | EOSINOPHIL [3]: 0% | ERYTHROCYTE COUNT [3]: 5.72 x10E6/uL | HEMATOCRIT [3]: 35.8% | HEMOGLOBIN [3]: 13.93 G/DL | LEUKOCYTE COUNT [3]: 12.2 x10E3/uL | LYMPHOCYTE [3]: 81% | MEAN CORPUSCULAR HEMOGLOBIN [3]: 24.4 pg | MEAN CORPUSCULAR HEMOGLOBIN CONCENTRATION [3]: 38.9 G/DL | MEAN CORPUSCULAR VOLUME [3]: 62.73 fL | MONOCYTE [3]: 1.67% | NEUTROPHIL [3]: 17.33% | PLATELET COUNT [3]: 1327 x10E3/uL | ALANINE AMINOTRANSFERASE [3]: 39.33 u/L | ALBUMIN [3]: 3.73 G/DL | ALKALINE PHOSPHATASE [3]: 318.67 u/L | ASPARTATE AMINOTRANSFERASE [3]: 61.33 u/L | BLOOD UREA NITROGEN [3]: 14.33 mg/dL | CHLORIDE [3]: 105.67 MEQ/L | CHOLESTEROL [3]: 77.33 mg/dL | CREATINE PHOSPHOKINASE [3]: 126.33 u/L | CREATININE [3]: 0.57 mg/dL | GLUCOSE [3]: 180.33 mg/dL | PHOSPHORUS [3]: 11.27 mg/dL | POTASSIUM [3]: 6.7 MEQ/L | SODIUM [3]: 151.33 MEQ/L | TOTAL BILIRUBIN [3]: 0.33 mg/dL | TOTAL PROTEIN [3]: 6.07 G/DL | BASOPHIL [4]: 0% | EOSINOPHIL [4]: 0.33% | ERYTHROCYTE COUNT [4]: 6.28 x10E6/uL | HEMATOCRIT [4]: 38.47% | HEMOGLOBIN [4]: 15 G/DL | LEUKOCYTE COUNT [4]: 16.07 x10E3/uL | LYMPHOCYTE [4]: 86.67% | MEAN CORPUSCULAR HEMOGLOBIN [4]: 23.93 pg | MEAN CORPUSCULAR HEMOGLOBIN CONCENTRATION [4]: 39 G/DL | MEAN CORPUSCULAR VOLUME [4]: 61.4 fL | MONOCYTE [4]: 1.67% | NEUTROPHIL [4]: 11.33% | PLATELET COUNT [4]: 1190.33 x10E3/uL | ALANINE AMINOTRANSFERASE [4]: 35.67 u/L | ALBUMIN [4]: 3.7 G/DL | ALKALINE PHOSPHATASE [4]: 350 u/L | ASPARTATE AMINOTRANSFERASE [4]: 61.33 u/L | BLOOD UREA NITROGEN [4]: 14.33 mg/dL | CHLORIDE [4]: 106.33 MEQ/L | CHOLESTEROL [4]: 65 mg/dL | CREATINE PHOSPHOKINASE [4]: 140.67 u/L | CREATININE [4]: 0.6 mg/dL | GLUCOSE [4]: 178 mg/dL | PHOSPHORUS [4]: 11 mg/dL | POTASSIUM [4]: 6.43 MEQ/L | SODIUM [4]: 149.33 MEQ/L | TOTAL BILIRUBIN [4]: 0.37 mg/dL | TOTAL PROTEIN [4]: 6.1 G/DL | BASOPHIL [5]: 0% | EOSINOPHIL [5]: 0.33% | ERYTHROCYTE COUNT [5]: 6.04 x10E6/uL | HEMATOCRIT [5]: 37% | HEMOGLOBIN [5]: 14.33 G/DL | LEUKOCYTE COUNT [5]: 8.83 x10E3/uL | LYMPHOCYTE [5]: 83.67% | MEAN CORPUSCULAR HEMOGLOBIN [5]: 23.93 pg | MEAN CORPUSCULAR HEMOGLOBIN CONCENTRATION [5]: 38.77 G/DL | MEAN CORPUSCULAR VOLUME [5]: 61.6 fL | MONOCYTE [5]: 2% | NEUTROPHIL [5]: 14% | PLATELET COUNT [5]: 1429 x10E3/uL | ALANINE AMINOTRANSFERASE [5]: 26 u/L | ALBUMIN [5]: 3.83 G/DL | ALKALINE PHOSPHATASE [5]: 312 u/L | ASPARTATE AMINOTRANSFERASE [5]: 48.33 u/L | BLOOD UREA NITROGEN [5]: 17 mg/dL | CHLORIDE [5]: 109.33 MEQ/L | CHOLESTEROL [5]: 73 mg/dL | CREATINE PHOSPHOKINASE [5]: 142 u/L | CREATININE [5]: 0.53 mg/dL | GLUCOSE [5]: 163.33 mg/dL | PHOSPHORUS [5]: 9.83 mg/dL | POTASSIUM [5]: 5.8 MEQ/L | SODIUM [5]: 151.33 MEQ/L | TOTAL BILIRUBIN [5]: 0.17 mg/dL | TOTAL PROTEIN [5]: 6.3 G/DL | BASOPHIL [6]: 0% | EOSINOPHIL [6]: 0% | ERYTHROCYTE COUNT [6]: 5.62 x10E6/uL | HEMATOCRIT [6]: 33.9% | HEMOGLOBIN [6]: 14.07 G/DL | LEUKOCYTE COUNT [6]: 10.7 x10E3/uL | LYMPHOCYTE [6]: 76.67% | MEAN CORPUSCULAR HEMOGLOBIN [6]: 25.07 pg | MEAN CORPUSCULAR HEMOGLOBIN CONCENTRATION [6]: 41.53 G/DL | MEAN CORPUSCULAR VOLUME [6]: 60.37 fL | MONOCYTE [6]: 2.33% | NEUTROPHIL [6]: 21% | PLATELET COUNT [6]: 995.67 x10E3/uL | ALANINE AMINOTRANSFERASE [6]: 34.67 u/L | ALBUMIN [6]: 3.7 G/DL | ALKALINE PHOSPHATASE [6]: 315.33 u/L | ASPARTATE AMINOTRANSFERASE [6]: 55.33 u/L | BLOOD UREA NITROGEN [6]: 16.33 mg/dL | CHLORIDE [6]: 112.33 MEQ/L | CHOLESTEROL [6]: 71.33 mg/dL | CREATINE PHOSPHOKINASE [6]: 127.33 u/L | CREATININE [6]: 0.6 mg/dL | GLUCOSE [6]: 173.33 mg/dL | PHOSPHORUS [6]: 10.27 mg/dL | POTASSIUM [6]: 5.83 MEQ/L | SODIUM [6]: 155 MEQ/L | TOTAL BILIRUBIN [6]: 0.23 mg/dL | TOTAL PROTEIN [6]: 6.1 G/DL
